Results taken from patent US10544141B2, “Derivatives and methods of treating hepatitis B infections” (Novira Therapeutics, Inc., priority 2014, dated 2020).

Test system: HBV
Experiment: HBV replication inhibition assay (BDNA assay) in HepG2.2.15 cells
Assay type: cell-based
Conditions: 6 days treatment, encapsidated HBV DNA in supernatant by branched DNA QuantiGene assay; for EC50: Hepatitis B virus, HepG2.2.15, 144 h
Excerpt: HBV replication inhibition by the compounds of this invention could be determined in cells infected or transfected with HBV, or cells with stably integrated HBV, such as HepG2.2.15 cells (Sells et al. 1987). In this example, HepG2.2.15 cells were maintained in cell culture medium containing 10% fetal bovine serum (FBS), Geneticin, L-glutamine, penicillin and streptomycin. HepG2.2.15 cells could be seeded in 96-well plates at a density of 40,000 cells/well and be treated with serially diluted compounds at a final DMSO concentration of 0.5% either alone or in combination by adding drugs in a checker box format. Cells were incubated with compounds for three days, after which medium was removed and fresh medium containing compounds was added to cells and incubated for another three days. At day 6, supernatant was removed and treated with DNase at 37° C. for 60 minutes, followed by enzyme inactivation at 75° C. for 15 minutes. Encapsidated HBV DNA was released from the virions and covalently linked HBV polymerase by incubating in lysis buffer (Affymetrix QS0010) containing 2.5 μg proteinase K at 50° C. for 40 minutes. HBV DNA was denatured by addition of 0.2 M NaOH and detected using a branched DNA (BDNA) QuantiGene assay kit according to manufacturer recommendation (Affymetrix). HBV DNA levels could also be quantified using qPCR, based on amplification of encapsidated HBV DNA extraction with QuickExtraction Solution (Epicentre Biotechnologies) and amplification of HBV DNA using HBV specific PCR probes that can hybridize to HBV DNA and a fluorescently labeled probe for quantitation. In addition, cell viability of HepG2.2.15 cells incubated with test compounds alone or in combination was determined by using CellTitre-Glo reagent according to the manufacturer protocol (Promega). The mean background signal from wells containing only culture medium was subtracted from all other samples, and percent inhibition at each compound concentration was calculated by normalizing to signals from HepG2.2.15 cells treated with 0.5% DMSO using equation E1. % inhibition=(DMSOave−Xi)/DMSOave×100% E1: where DMSOave is the mean signal calculated from the wells that were treated with DMSO control (0% inhibition control) and Xi is the signal measured from the individual wells. EC50 values, effective concentrations that achieved 50% inhibitory effect, were determined by non-linear fitting using Graphpad Prism software (San Diego, Calif.) and equation E2 Y=Y min+(Y max−Y min)/(1+10(Log EC50−X)×HillSlope) E2: […]
where Y represents percent inhibition values and X represents the logarithm of compound concentrations.
Selected compounds of the invention were assayed in the HBV replication assay (BDNA assay), as described above and a representative group of these active compounds is shown in Table 3. […] In Table 3, “A” represents 0.01<EC50<0.10; “B” represents 0.10≤EC50<0.50; and “C” represents 0.50≤EC50<1.0; (‘+’ indicates >50% activity at 10 μM).

Structure (SMILES) | EC50 | HBV replication inhibition >50% at 10 μM (qualitative flag)
O=C(Nc1cccc(Cl)c1)N1CCc2[nH]nc(C3(C(F)(F)F)CC3)c2C1 [Compound 700, N-(3-chlorophenyl)-3-[1-(trifluoromethyl)cyclopropyl]-1,4,6,7-tetrahydropyrazolo[4,3-c]pyridine-5-carboxamide] | 100 to 500 nM | 
CC(CO)c1n[nH]c2c1CN(C(=O)Nc1cccc(Cl)c1)CC2 (stereo not shown) [Compound 388, N-(3-chlorophenyl)-3-(2-hydroxy-1-methyl-ethyl)-1,4,6,7-tetrahydropyrazolo[4,3-c]pyridine-5-carboxamide] |  | + (‘+’ indicates >50% activity at 10 μM)
CCCC(F)(F)c1n[nH]c2c1CN(C(=O)Nc1cccc(Cl)c1)CC2 [Compound 642, N-(3-chlorophenyl)-3-(1,1-difluorobutyl)-1,4,6,7-tetrahydropyrazolo[4,3-c]pyridine-5-carboxamide] | 10 to 100 nM | 
O=C(Nc1ccnc(Br)c1F)N1CCc2[nH]nc(C3CCC3)c2C1 [Compound 664] | 100 to 500 nM | 
O=C(Nc1cccc(Cl)c1)N1CCc2[nH]nc(C3=CC(F)CC3)c2C1 (stereo not shown) [Compound 744, N-(3-chlorophenyl)-3-(3-fluorocyclopenten-1-yl)-1,4,6,7-tetrahydropyrazolo[4,3-c]pyridine-5-carboxamide] | 10 to 100 nM | 
C[C@H]1Cc2[nH]nc(C3CCCO3)c2CN1C(=O)Nc1ccnc(Br)c1F (single isomer, unassigned) [968 D1] | 500 to 1000 nM | 
CC1Cc2[nH]nc(C3CCC3)c2CN1C(=O)Nc1ccnc(Br)c1F (stereo not shown) [760 S] | 100 to 500 nM | 
O=C(Nc1ccnc(Cl)c1F)N1CCc2[nH]nc(C34CCCC3C4)c2C1 (stereo not shown) [Compound 782] | 10 to 100 nM | 
CC(C)(O)c1n[nH]c2c1CN(C(=O)Nc1cccc(Cl)c1)CC2 [Compound 238] |  | + (‘+’ indicates >50% activity at 10 μM)
Cc1cc(NC(=O)N2Cc3c(C4CCCO4)n[nH]c3C[C@@H]2C)ccc1F (stereo partly shown) [971 D2] | 100 to 500 nM | 
C=C(C)c1n[nH]c2c1CN(C(=O)Nc1cccc(Br)c1F)CC2 [Compound 548] | 10 to 100 nM | 
O=C(Nc1cccc(Cl)c1)N1CCc2[nH]nc(C3=CCOCC3)c2C1 [Compound 274] | 100 to 500 nM | 
O=C(Nc1ccnc(Cl)c1F)N1CCc2[nH]nc(C3CCC3)c2C1 [Compound 660] | 100 to 500 nM | 
O=C(Nc1cccc(Cl)c1)N1CCc2[nH]nc(O)c2C1 [Compound 241, N-(3-chlorophenyl)-3-hydroxy-1,4,6,7-tetrahydropyrazolo[4,3-c] pyridine-5-carboxamide] |  | + (‘+’ indicates >50% activity at 10 μM)
O=C(Nc1ccnc(Br)c1F)N1CCc2[nH]nc(C34CCCC3C4)c2C1 (stereo not shown) [Compound 791] | 10 to 100 nM | 
O=C(Nc1cccc(Cl)c1)N1CCc2[nH]nc(C3CC=CC3)c2C1 [Compound 693, N-(3-chlorophenyl)-3-cyclopent-3-en-1-yl-1,4,6,7-tetrahydropyrazolo[4,3-c]pyridine-5-carboxamide] | 10 to 100 nM | 

Structure (SMILES) | EC50 | HBV replication inhibition >50% at 10 μM (qualitative flag)
Cc1cc(NC(=O)N2Cc3c(C4CCCC4)n[nH]c3C[C@H]2C)ccc1F [931 R] | 10 to 100 nM | 
Cc1cccc(NC(=O)N2Cc3c(C4CCCC4)n[nH]c3C[C@H]2C)c1 [933 R] | 10 to 100 nM | 
C[C@@H]1Cc2[nH]nc(C3CCCC3)c2CN1C(=O)Nc1cccc(Cl)c1 [934 R] | 10 to 100 nM | 
C[C@H]1Cc2[nH]nc(C3CCCC3)c2CN1C(=O)Nc1ccc(F)c(C#N)c1 [930 S] | 10 to 100 nM | 
C[C@@H]1Cc2[nH]nc(C3CCCC3)c2CN1C(=O)Nc1ccnc(Br)c1F [929 R] | 10 to 100 nM | 
C[C@H]1Cc2[nH]nc(C3CCCC3)c2CN1C(=O)Nc1cccc(Cl)c1 [934 S] | 10 to 100 nM | 
C[C@H]1Cc2[nH]nc(C3CCCC3)c2CN1C(=O)Nc1cccc(Br)c1 [927 S] | 10 to 100 nM | 
CC(C)c1n[nH]c2c1CN(C(=O)Nc1cccc(Cl)c1)CC2 [Compound 267] | 100 to 500 nM | 
C[C@H]1Cc2[nH]nc(C3CCCC3)c2CN1C(=O)Nc1ccc(F)c(Cl)c1 [932 S] | 10 to 100 nM | 
O=C(Nc1cccc(Br)c1)N1CCc2[nH]nc(C3CCC3)c2C1 [Compound 663] | 10 to 100 nM | 
Cc1cc(NC(=O)N2CCc3[nH]nc(C45CCCC4C5)c3C2)ccc1F (stereo not shown) [Compound 788] | 10 to 100 nM | 
C[C@H]1Cc2[nH]nc(C3CCCO3)c2CN1C(=O)Nc1ccc(F)c(Cl)c1 (stereo partly shown) [965 D2] | 10 to 100 nM | 
O=C(Nc1cccc(Br)c1)N1CCc2[nH]nc(C34CCCC3C4)c2C1 (stereo not shown) [Compound 785] | 10 to 100 nM | 
O=C(Nc1cccc(Cl)c1)N1CCc2[nH]nc(C3CCCC3)c2C1 [Compound 264, N-(3-chlorophenyl)-3-cyclopentyl-1,4,6,7-tetrahydro pyrazolo[4,3-c]pyridine-5-carboxamide] | 10 to 100 nM | 
C=C(C)c1n[nH]c2c1CN(C(=O)Nc1ccnc(Cl)c1F)CC2 [Compound 547] | 100 to 500 nM | 
